Test results published in US20250195536A1, “BICYCLOOCTANE KRAS INHIBITORS” (Incyte Corporation, priority 2023, published 2025).

How the values were obtained:
KRAS G12V = KRAS G12V (Homo sapiens, UniProt P01116, G12V); test: GDP-GTP exchange assay (KRAS G12V); assay type: biochemical; conditions: bodipy-GDP/GppNHp exchange with SOS1; 3 h incubation after GppNHp-SOS1
Experimental: (§1) The inhibitor potency of the exemplified compounds was determined in a fluorescence based guanine nucleotide exchange assay, which measures the exchange of bodipy-GDP (fluorescently labeled GDP) for GppNHp (Non-hydrolyzable GTP analog) to generate the active state of KRAS in the presence of SOS1 (guanine nucleotide exchange factor). Inhibitors were serially diluted in DMSO and a volume of 0.1 μL was transferred to the wells of a black low volume 384-well plate. 5 μL/well volume of bodipy-loaded KRAS G12D diluted to 2.5 nM in assay buffer (25 mM Hepes pH 7.5, 50 mM NaCl, 10 mM MgCl2 and 0.01% Brij-35) was added to the plate and pre-incubated with inhibitor for 4 h at r.t. Appropriate controls (enzyme with no inhibitor or with a G12D inhibitor) were included on the plate. The exchange was initiated by the addition of a 5 μL/well volume containing 1 mM GppNHp and 300 nM SOS1 in assay buffer. The 10 μL/well reaction concentration of the bodipy-loaded KRAS G12D, GppNHp, and SOS1 were 2.5 nM, 500 μM, and 150 nM, respectively. The reaction plates were incubated at r.t. for 2 h, a time estimated for complete GDP-GTP exchange in the absence of inhibitor. For the KRAS G12V mutant, similar guanine nucleotide exchange assays were used with 2.5 nM as final concentration for the bodipy loaded KRAS proteins and 3 h incubation after adding GppNHp-SOS1 mixture. A cyclic peptide described to selectively bind G12D mutant (Sakamoto et al., BBRC 484.3 (2017), 605-611) or internal compounds with confirmed binding were used as positive controls in the assay plates. Fluorescence intensities were measured on a PheraStar plate reader instrument (BMG Labtech) with excitation at 485 nm and emission at 520 nm.
(§2) Either GraphPad prism or Genedata Screener SmartFit was used to analyze the data. The IC50 values were derived by fitting the data to a four parameter logistic equation producing a sigmoidal dose-response curve with a variable Hill coefficient.
(§3) The symbol “⬆” indicates IC50 100 nM, “⬆⬆” indicates IC50 >100 nM but ≤1 μM; and “⬆⬆⬆” indicates IC50 is >1 μM but ≤5 μM, “⬆⬆⬆⬆” indicates IC50 is >5 μM but ≤10 μM. “NA” indicates IC50 not available.

KRAS G12D = KRAS G12D (Homo sapiens, UniProt P01116, G12D); test: GDP-GTP exchange assay (KRAS G12D); assay type: biochemical; conditions: bodipy-GDP/GppNHp exchange with SOS1; 4 h pre-incubation, 2 h reaction
KRAS G12D, sequence (P01116 1-188 isoform P01116-2 G12D): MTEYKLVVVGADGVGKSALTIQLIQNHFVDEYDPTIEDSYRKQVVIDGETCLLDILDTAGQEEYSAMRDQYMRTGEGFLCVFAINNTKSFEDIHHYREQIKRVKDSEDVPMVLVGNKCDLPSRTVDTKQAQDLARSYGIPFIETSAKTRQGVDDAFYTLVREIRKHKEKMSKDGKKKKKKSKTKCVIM
Experimental: as §1, §2, §3
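Also: one dagger IC50 up to 100 nM and two daggers above 100 nM up to 1 μM.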

KRAS G12V, sequence (P01116 1-188 isoform P01116-2 G12V): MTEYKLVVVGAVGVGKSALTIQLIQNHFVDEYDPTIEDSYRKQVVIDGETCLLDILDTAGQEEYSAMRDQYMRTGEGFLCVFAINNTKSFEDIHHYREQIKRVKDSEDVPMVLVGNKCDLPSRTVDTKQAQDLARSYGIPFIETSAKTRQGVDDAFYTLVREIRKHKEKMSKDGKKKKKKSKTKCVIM

Compound	G12V_exchange (KRAS_G12V exchange assay IC50) (KRAS G12V)	G12D_exchange (KRAS_G12D exchange assay IC50) (KRAS G12D)
Cc1c(F)ccnc1N1C[C@@H]2C[C@H](C1)N(C(=O)C1CC1)[C@H]2c1cc2c(C)nc3c(F)c(-c4cccc(Cl)c4Cl)c(CCC#N)cc3c2n1[C@H]1[C@H]2CN[C@@H]1C2 (atropisomer, axis not shown; (Ra)) [Example 75, 3-((Ra)-1-((1R,4R,5S)-2-azabicyclo[2.1.1]hexan-5-yl)-2-((1S,5R,7R)-6-(cyclopropanecarbonyl)-3-(4-fluoro-3-methylpyridin-2-yl)-3,6-diazabicyclo[3.2.1]octan-7-yl)-7-(2,3-dichlorophenyl)-6-fluoro-4-methyl-1H-pyrrolo[3,2-c]quinolin-8-yl)propanenitrile]	†	††
Cc1nc2c(F)c(-c3cccc(Cl)c3Cl)c(CCC#N)cc2c2c1cc([C@H]1[C@H]3C[C@H](CN(c4cc(C(F)(F)F)cc(C(F)(F)F)c4)C3)N1C(=O)C1CC1)n2[C@H]1[C@H]2CN[C@@H]1C2 (atropisomer, axis not shown; (Ra)) [Example 18, 3-((Ra)-1-((1R,4R,5S)-2-azabicyclo[2.1.1]hexan-5-yl)-2-((1S,5R,7R)-3-(3,5-bis(trifluoromethyl)phenyl)-6-(cyclopropanecarbonyl)-3,6-diazabicyclo[3.2.1]octan-7-yl)-7-(2,3-dichlorophenyl)-6-fluoro-4-methyl-1H-pyrrolo[3,2-c]quinolin-8-yl)propanenitrile]	†	††
Cc1nc2c(F)c(-c3cccc(Cl)c3Cl)c(CCC#N)cc2c2c1cc([C@H]1[C@H]3C[C@H](CN(c4cc(C)n(C)c(=O)c4)C3)N1C(=O)C1CC1)n2[C@H]1[C@H]2CN[C@@H]1C2 (atropisomer, axis not shown; (Ra)) [Example 66, 3-((Ra)-1-((1R,4R,5S)-2-azabicyclo[2.1.1]hexan-5-yl)-2-((1S,5R,7R)-6-(cyclopropanecarbonyl)-3-(1,6-dimethyl-2-oxo-1,2-dihydropyridin-4-yl)-3,6-diazabicyclo[3.2.1]octan-7-yl)-7-(2,3-dichlorophenyl)-6-fluoro-4-methyl-1H-pyrrolo[3,2-c]quinolin-8-yl)propanenitrile]	†	†
Cc1nc2c(F)c(-c3cccc(Cl)c3Cl)c(CCC#N)cc2c2c1cc([C@H]1[C@H]3C[C@H](CN(c4ccc(C(F)(F)F)cc4)C3=O)N1C(=O)C1CC1)n2[C@H]1[C@H]2CN[C@@H]1C2 (atropisomer, axis not shown; (Ra)) [Example 120a, 3-((Ra)-1-((1R,4R,5S)-2-Azabicyclo[2.1.1]hexan-5-yl)-2-((1R,5R,7R)-6-(cyclopropanecarbonyl)-2-oxo-3-(4-(trifluoromethyl)phenyl)-3,6-diazabicyclo[3.2.1]octan-7-yl)-7-(2,3-dichlorophenyl)-6-fluoro-4-methyl-1H-pyrrolo[3,2-c]quinolin-8-yl)propanenitrile]	†	††
Cc1nc2c(F)c(-c3cccc(Cl)c3Cl)c(CCC#N)cc2c2c1cc([C@H]1[C@H]3C[C@H](CN(c4cnn(C)c4)C3)N1C(=O)C1CC1)n2[C@H]1[C@H]2CN[C@@H]1C2 (atropisomer, axis not shown; (Ra)) [Example 11, 3-((Ra)-1-((1R,4R,5S)-2-azabicyclo[2.1.1]hexan-5-yl)-2-((1S,5R,7R)-6-(cyclopropanecarbonyl)-3-(1-methyl-1H-pyrazol-4-yl)-3,6-diazabicyclo[3.2.1]octan-7-yl)-7-(2,3-dichlorophenyl)-6-fluoro-4-methyl-1H-pyrrolo[3,2-c]quinolin-8-yl)propanenitrile]	†	†

Other lines, results leading:

G12V_exchange (KRAS_G12V exchange assay IC50) (KRAS G12V)	G12D_exchange (KRAS_G12D exchange assay IC50) (KRAS G12D)	Compound
†	†	Cc1nc2c(F)c(-c3cccc(Cl)c3Cl)c(CCC#N)cc2c2c1cc([C@H]1[C@H]3C[C@H](CN(c4cnc5cccnc5c4)C3)N1C(=O)C1CC1)n2[C@H]1[C@H]2CN[C@@H]1C2 (atropisomer, axis not shown; (Ra)) [Example 6, 3-((Ra)-1-((1R,4R,5S)-2-azabicyclo[2.1.1]hexan-5-yl)-2-((1S,5R,7R)-6-(cyclopropanecarbonyl)-3-(1,5-naphthyridin-3-yl)-3,6-diazabicyclo[3.2.1]octan-7-yl)-7-(2,3-dichlorophenyl)-6-fluoro-4-methyl-1H-pyrrolo[3,2-c]quinolin-8-yl)propanenitrile]
†	†	Cc1nc2c(F)c(-c3cccc(Cl)c3Cl)c(CCC#N)cc2c2c1cc([C@H]1[C@H]3C[C@H](CN(c4ccnc(C#N)c4)C3)N1C(=O)C1CC1)n2[C@H]1[C@H]2CN[C@@H]1C2 (atropisomer, axis not shown; (Ra)) [Example 63, 4-((1S,5R,7R)-7-((Ra)-1-((1R,4R,5S)-2-azabicyclo[2.1.1]hexan-5-yl)-8-(2-cyanoethyl)-7-(2,3-dichlorophenyl)-6-fluoro-4-methyl-1H-pyrrolo[3,2-c]quinolin-2-yl)-6-(cyclopropanecarbonyl)-3,6-diazabicyclo[3.2.1]octan-3-yl)picolinonitrile]
†	†	Cc1nc2c(F)c(-c3cccc(Cl)c3Cl)c(CCC#N)cc2c2c1cc([C@H]1[C@H]3C[C@H](CN(C(=O)NCC(F)(F)F)C3)N1C(=O)C1CC1)n2[C@H]1[C@H]2CN[C@@H]1C2 (atropisomer, axis not shown; (Ra)) [Example 109, (1 S,5R,7R)-7-((Ra)-1-((1R,4R,5S)-2-Azabicyclo[2.1.1]hexan-5-yl)-8-(2-cyanoethyl)-7-(2,3-dichlorophenyl)-6-fluoro-4-methyl-1H-pyrrolo[3,2-c]quinolin-2-yl)-6-(cyclopropanecarbonyl)-N-(2,2,2-trifluoroethyl)-3,6-diazabicyclo[3.2.1]octane-3-carboxamide]
†	†	Cc1nc2c(F)c(-c3cccc(Cl)c3Cl)c(CCC#N)cc2c2c1cc(C1C3CC(CN(C4CCCCC4)C3)N1C(=O)C1CC1)n2C1C2CNC1C2 (atropisomer, axis not shown; (Ra)) [Example 114, 3-((Ra)-1-((1R,4R,5S)-2-Azabicyclo[2.1.1]hexan-5-yl)-2-((1R,5R,7R)-3-cyclohexyl-6-(cyclopropanecarbonyl)-3,6-diazabicyclo[3.2.1]octan-7-yl)-7-(2,3-dichlorophenyl)-6-fluoro-4-methyl-1H-pyrrolo[3,2-c]quinolin-8-yl)propanenitrile]
